According to patent US12502416B1, “PAM3CSK4 injection for the prevention and management of MASLD” (DASMAN DIABETES INSTITUTE, priority 2025, dated 2025):
Ends that are not written are not given here. * marks the point of attachment. X1 = 2,3‑bis(palmitoyloxy)‑(2RS)‑propyl, CCCCCCCCCCCCCCCC(=O)OCC(C*)OC(=O)CCCCCCCCCCCCCCC; Palmitoyl = CCCCCCCCCCCCCCCC(=O)*

Tests used:
Assay type in all cases: in vivo
CD36 = assay: Liver CD36 expression by qRT-PCR in high-fat diet mice; conditions: HFD mice; 10 μg/kg IP every other day for two weeks; liver total RNA, qRT-PCR (FIG. 3B)
Protocol: (§1) Referring to FIGS. 3A-3B, 8-10 weeks-old male mice (n−20) were fed a high-fat diet (60% fat). […] These mice were randomly divided into 2 groups. Mice in Group 1 (n=10) received injections of 0.9% normal saline (vehicle) every other day for a duration of two weeks. Mice in Group 2 (n=10) received injections of Pam3CSK4 (SEQ ID NO: 1) (drug:10 μg/kg; IP) every other day for a duration of two weeks. Throughout the treatment period, mice were kept on a high-fat diet. Total RNA was extracted from livers and expression of PPAR-γ (FIG. 3A) and CD36 (FIG. 3B) was determined by qRT-PCR. Data presents as mean±SD.

[1] = test system: C57BL/6 mice on high-fat diet (impaired glucose homeostasis); assay: Fasting blood glucose in high-fat diet mice; conditions: HFD mice; 10 μg/kg IP every other day for two weeks; compared to vehicle (FIG. 2)
Protocol: (§2) In the experiment, 8-10 weeks-old male mice (n−20) were fed a high-fat diet (60% fat). […] These mice were randomly divided into 2 groups. Mice in Group 1(n−10) received injections of 0.9% normal saline (vehicle) every other day for a duration of two weeks. Mice in Group 2 (n−10) received injections of Pam3CSK4 (SEQ ID NO: 1) (drug:10 μg/kg; IP) every other day for a duration of two weeks. Throughout the treatment period, mice were kept on a high-fat diet. A) Liver sections of the mice were stained with H&E. Referring to FIG. 2, fasting blood glucose was reduced in the mice treated with Pam3CSK4 (SEQ ID NO: 1) compared to mice treated with a vehicle. […] By non-limiting example, a vehicle may be saline, a sugar water solution, or other similar substances that may be injected without affecting the subject directly. Data is presented as mean±SD.

[2] = test system: C57BL/6 mice on high-fat diet (liver steatosis); assay: Liver section histology (H&E) in high-fat diet mice with liver steatosis; conditions: obese HFD mice with steatosis, 10 μg/kg IP every other day for two weeks
Protocol: as §2

PPAR-γ = assay: Liver PPAR-γ expression by qRT-PCR in high-fat diet mice; conditions: HFD mice; 10 μg/kg IP every other day for two weeks; liver total RNA, qRT-PCR (FIG. 3A)
Protocol: as §1

## Pam3CysSerLys4 (Palmitoyl-C(X1)SKKKK) [Pam3CSK4, a synthetic triacylated lipopeptide (LP) and a TLR2/TLR1 ligand]
CD36
  CD36 expression in the liver: suppressed
[1]
  fasting blood glucose (FBG): reduced
[2]
  normal liver without any fat in treated mice: 100%
[2]; vs vehicle
  hepatic fat accumulation: effectively reduces hepatic fat accumulation
PPAR-γ
  PPAR-γ expression in the liver: suppressed
